Test results taken from US6274619A, “Amidino substituted tetrahydrobenzo thiophene or furan derivatives and their use as urokinase inhibitors” (Fujisawa Pharmaceutical Co., Ltd., priority 1996, dated 2001).
Counter-ions that a name gives are not always drawn.

Biological target: T1, human high molecular weight urokinase (Homo sapiens, UniProt P00749)
T1 construct: purchased Fujisawa Pharmaceutical Co., Ltd
Assay: Urokinase inhibiting effect (chromogenic substrate S-2288)
Assay type: biochemical
Settings: 25 IU/ml urokinase, substrate S-2288, pH 7.5, 37° C., 30 minutes, A405
Experimental: Now in order to show the utility of the object compound (I) and pharmaceutically acceptable salts, the test datum on urokinase inhibiting effect of the representative compound of the compound (I) of this invention is shown in the following.
Test Compound was incubated at desired concentrations with 25 International Units (IU)/ml human high molecular weight urokinase (Fujisawa Pharmaceutical Co., Ltd.) and urokinase substrate (S-2288, H-D-Isoleucyl-L-prolyl-L-arginine-p-nitroaniline dihydrochloride; Chromagenix, Sweden; Japan distributors Daiichikagakuyakuhin Co., Ltd.) in a 100 μl final volume of 50 mM Tris, 100 mM NaCl, 1 mM Na2 EDTA, 0.01% (v/v) polyoxyethylenesorbitan monooleate (Tween 80), pH 7.5 (Buffer Z). Incubations were carried out at 37° C. for 30 minutes. Color was quantitated by measuring absorbance at 405 nm (A405) using EL312 Automated Microplate Reader.

Compound `CCCC=C1CCCc2sc(C(=N)N)cc21` [Compound A, 2-Amidino-4-n-butylidene-4,5,6,7-tetrahydrobenzo[b]thiophene hydrochloride] has an IC50 of 470 nM.
